# US8178570B2, “Tie-2 modulators and methods of use” (Exelixis, Inc., priority 2003, dated 2012)
# Target: Tie-2 (Homo sapiens, UniProt Q02763)
# Assay: Tie-2 tyrosine kinase activity: kinase-dependent ATP consumption (pEY substrate, luciferase/luciferin chemiluminescence) or 33P-ATP incorporation into substrate
# Type: biochemical
# Conditions: Tie-2 (human enzyme) inhibition, Table 2, class symbols A-D
# Description: One measure of inhibition is Ki. […] The Ki for a compound is determined from the IC50 based on three assumptions. First, only one compound molecule binds to the enzyme and there is no cooperativity. […] Third, the enzymatic rate of the enzyme-inhibitor complex is zero. The rate (i.e., compound concentration) data are fitted to the equation:
# [formula] where V is the observed rate, Vmax, is the rate of the free enzyme, I0 is the inhibitor concentration, E0 is the enzyme concentration, and Kd is the dissociation constant of the enzyme-inhibitor complex.
# Tyrosine kinase activity is determined by 1) measurement of kinase-dependent ATP consumption by in the presence of a generic substrate such as polyglutamine, tyrosine (pEY), by luciferase/luciferin-mediated chemiluminescence or; 2) incorporation of radioactive phosphate derived from ^33P-ATP into a generic substrate which has been absorbed onto the well surface of polystyrene microtiter plates. Phosphorylated substrate products are quantified by scintillation spectrometry.
# Inhibition is indicated as IC50 with following key: A=IC50 less than 50 nM, B=IC50 greater than 50 nM, but less than or equal to 1000 nM, C=IC50 greater than 1000 nM, but less than 10,000 nM, and D=IC50 10,000 nM or greater. The abbreviation for human enzyme, Tie-2, is defined as tyrosine kinase with immunoglobulin and EGF repeats.
# Chain of Tie-2 (Q02763 23-1124): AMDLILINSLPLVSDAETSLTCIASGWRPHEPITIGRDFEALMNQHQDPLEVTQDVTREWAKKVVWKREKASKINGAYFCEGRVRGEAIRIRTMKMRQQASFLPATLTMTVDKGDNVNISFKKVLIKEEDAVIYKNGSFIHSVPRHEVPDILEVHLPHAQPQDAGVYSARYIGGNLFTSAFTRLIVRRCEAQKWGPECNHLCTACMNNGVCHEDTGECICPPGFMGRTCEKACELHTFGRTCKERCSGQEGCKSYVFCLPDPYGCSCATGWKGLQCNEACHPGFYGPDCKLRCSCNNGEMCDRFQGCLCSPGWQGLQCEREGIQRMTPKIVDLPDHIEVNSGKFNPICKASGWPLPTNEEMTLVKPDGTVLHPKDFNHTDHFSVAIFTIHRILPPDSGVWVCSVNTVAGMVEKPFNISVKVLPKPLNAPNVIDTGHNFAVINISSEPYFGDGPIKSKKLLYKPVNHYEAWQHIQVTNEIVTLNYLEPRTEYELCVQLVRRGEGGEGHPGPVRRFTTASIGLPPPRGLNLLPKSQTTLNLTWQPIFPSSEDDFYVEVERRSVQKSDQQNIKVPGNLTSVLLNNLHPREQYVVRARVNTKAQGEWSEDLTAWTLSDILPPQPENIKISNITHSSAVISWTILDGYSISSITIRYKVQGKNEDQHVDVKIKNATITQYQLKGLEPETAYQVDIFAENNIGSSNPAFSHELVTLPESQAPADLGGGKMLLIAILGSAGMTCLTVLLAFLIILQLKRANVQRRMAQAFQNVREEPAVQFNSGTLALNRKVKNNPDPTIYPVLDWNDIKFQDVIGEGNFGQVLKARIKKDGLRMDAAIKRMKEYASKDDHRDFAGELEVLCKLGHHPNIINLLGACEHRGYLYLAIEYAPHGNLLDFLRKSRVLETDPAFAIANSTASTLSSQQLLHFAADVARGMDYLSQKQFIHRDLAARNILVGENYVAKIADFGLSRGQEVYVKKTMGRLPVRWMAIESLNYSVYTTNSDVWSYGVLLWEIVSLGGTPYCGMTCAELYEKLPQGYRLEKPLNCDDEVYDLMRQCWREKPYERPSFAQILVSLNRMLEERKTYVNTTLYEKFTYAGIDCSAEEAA
row,Structure (SMILES),IC50
1,"O=C(Cc1cccc2ccccc12)N(CCn1nc(-c2ccncc2)nc1-c1ccc(O)c(Cl)c1)C1CCCC1 [Entry 1, N-{2-[5-(3-chloro-4-hydroxyphenyl)-3-pyridin-4-yl-1H-1,2,4-triazol-1-yl]ethyl}-N-cyclopentyl-2-naphthalen-1-ylacetamide]",< 0.05 µM
2,"CCOC(=O)Cn1nc(-c2ccncc2)nc1-c1ccc(OC)c(Cl)c1 [Entry 2, ethyl {5-[3-chloro-4-(methyloxy)phenyl]-3-pyridin-4-yl-1H-1,2,4-triazol-1-yl}acetate]",≥ 10 µM
3,"CCOC(=O)Cn1nc(-c2ccc(OC)c(Cl)c2)nc1-c1ccncc1 [Entry 4, ethyl {3-[3-chloro-4-(methyloxy)phenyl]-5-pyridin-4-yl-1H-1,2,4-triazol-1-yl}acetate]",≥ 10 µM
4,"COC(=O)CCn1nc(-c2ccc(OC)c(Cl)c2)nc1-c1ccncc1 [Entry 7, methyl 3-{3-[3-chloro-4-(methyloxy)phenyl]-5-pyridin-4-yl-1H-1,2,4-triazol-1-yl}propanoate]",≥ 10 µM
5,"COc1ccc(-c2nc(-c3ccncc3)n(CCCN(C(=O)Cc3cccc4ccccc34)C3CCCC3)n2)cc1Cl [Entry 9, N-(3-{3-[3-chloro-4-(methyloxy)phenyl]-5-pyridin-4-yl-1H-1,2,4-triazol-1-yl}propyl)-N-cyclopentyl-2-naphthalen-1-ylacetamide]",≥ 10 µM
6,"O=C(Cc1cccc2ccccc12)N(CCn1nc(-c2ccc(O)c(Cl)c2)nc1-c1ccncc1)C1CCCC1 [Entry 11, N-{2-[3-(3-chloro-4-hydroxyphenyl)-5-pyridin-4-yl-1H-1,2,4-triazol-1-yl]ethyl}-N-cyclopentyl-2-naphthalen-1-ylacetamide]",0.05 to 1 µM
7,"COc1ccc(-c2nc(-c3cccnc3)n(CC(=O)NC3CCCC3)n2)cc1Cl [Entry 12, 2-{3-[3-chloro-4-(methyloxy)phenyl]-5-pyridin-3-yl-1H-1,2,4-triazol-1-yl}-N-cyclopentylacetamide]",≥ 10 µM
8,"CCOC(=O)Cn1nc(-c2cc(Cl)cc(Cl)c2)nc1-c1ccncc1 [Entry 16, ethyl [3-(3,5-dichlorophenyl)-5-pyridin-4-yl-1H-1,2,4-triazol-1-yl]acetate]",≥ 10 µM
9,"O=C(Cc1cccc2ccccc12)N(CCn1nc(-c2ccco2)nc1-c1ccncc1)C1CCCC1 [Entry 18, N-cyclopentyl-N-[2-(3-furan-2-yl-5-pyridin-4-yl-1H-1,2,4-triazol-1-yl)ethyl]-2-naphthalen-1-ylacetamide]",0.05 to 1 µM
10,"COc1ccc(-c2nc(-c3ccncc3)nn2CCN(C(=O)c2ccc3ccccc3c2)C2CCCC2)cc1Cl [Entry 21, N-(2-{5-[3-chloro-4-(methyloxy)phenyl]-3-pyridin-4-yl-1H-1,2,4-triazol-1-yl}ethyl)-N-cyclopentylnaphthalene-2-carboxamide]",≥ 10 µM
11,"COc1cccc(-c2nc(-c3ccncc3)n(CCN(C(=O)Cc3cccc4ccccc34)C3CCCC3)n2)c1 [Entry 23, N-cyclopentyl-N-(2-{3-[3-(methyloxy)phenyl]-5-pyridin-4-yl-1H-1,2,4-triazol-1-yl}ethyl)-2-naphthalen-1-ylacetamide]",0.05 to 1 µM
12,"COc1ccc(-c2nc(-c3ccncc3)nn2CCCCN(C(=O)Cc2cccc3ccccc23)C2CCCC2)cc1Cl [Entry 24, N-(4-{5-[3-chloro-4-(methyloxy)phenyl]-3-pyridin-4-yl-1H-1,2,4-triazol-1-yl}butyl)-N-cyclopentyl-2-naphthalen-1-ylacetamide]",1 to 10 µM
13,"COc1ccc(-c2nc(-c3ccncc3)n(CCN(C(=O)c3ccccc3)C3CCCC3)n2)cc1Cl [Entry 27, N-(2-{3-[3-chloro-4-(methyloxy)phenyl]-5-pyridin-4-yl-1H-1,2,4-triazol-1-yl}ethyl)-N-cyclopentylbenzamide]",≥ 10 µM
14,"COc1ccc(-c2nc(-c3ccncc3)nn2CCN(C(=O)Nc2cccc3ccccc23)C2CCCC2)cc1Cl [Entry 29, N-(2-{5-[3-chloro-4-(methyloxy)phenyl]-3-pyridin-4-yl-1H-1,2,4-triazol-1-yl}ethyl)-N-cyclopentyl-N′-naphthalen-1-ylurea]",< 0.05 µM
15,"COc1ccc(-c2nc(-c3ccncc3)nn2CCN(C(=O)Nc2ccccc2)C2CCCC2)cc1Cl [Entry 30, N-(2-{5-[3-chloro-4-(methyloxy)phenyl]-3-pyridin-4-yl-1H-1,2,4-triazol-1-yl}ethyl)-N-cyclopentyl-N′-phenylurea]",≥ 10 µM
16,"COc1ccc(-c2nc(-c3ccncc3)nn2CCN(C(=O)Cc2ccccc2)C2CCCC2)cc1Cl [Entry 31, N-(2-{5-[3-chloro-4-(methyloxy)phenyl]-3-pyridin-4-yl-1H-1,2,4-triazol-1-yl}ethyl)-N-cyclopentyl-2-phenylacetamide]",1 to 10 µM
17,"COc1ccc(-c2nc(-c3ccccc3)nn2CCN(C(=O)Cc2cccc3ccccc23)C2CCCC2)cc1Cl [Entry 32, N-(2-{5-[3-chloro-4-(methyloxy)phenyl]-3-phenyl-1H-1,2,4-triazol-1-yl}ethyl)-N-cyclopentyl-2-naphthalen-1-ylacetamide]",≥ 10 µM

# Now from value to molecule:
row,IC50,Structure (SMILES)
1,≥ 10 µM,"COc1ccc(-c2nc(-c3ccncc3)nn2CC(=O)NC2CCCC2)cc1Cl [Entry 3, 2-{5-[3-chloro-4-(methyloxy)phenyl]-3-pyridin-4-yl-1H-1,2,4-triazol-1-yl}-N-cyclopentylacetamide]"
2,≥ 10 µM,"COc1ccc(-c2nc(-c3ccncc3)n(CC(=O)NC3CCCC3)n2)cc1Cl [Entry 5, 2-{3-[3-chloro-4-(methyloxy)phenyl]-5-pyridin-4-yl-1H-1,2,4-triazol-1-yl}-N-cyclopentylacetamide]"
3,≥ 10 µM,"COC(=O)CCn1nc(-c2ccncc2)nc1-c1ccc(OC)c(Cl)c1 [Entry 6, methyl 3-{5-[3-chloro-4-(methyloxy)phenyl]-3-pyridin-4-yl-1H-1,2,4-triazol-1-yl}propanoate]"
4,≥ 10 µM,"COc1ccc(-c2nc(-c3ccncc3)nn2CCCN(C(=O)Cc2cccc3ccccc23)C2CCCC2)cc1Cl [Entry 8, N-(3-{5-[3-chloro-4-(methyloxy)phenyl]-3-pyridin-4-yl-1H-1,2,4-triazol-1-yl}propyl)-N-cyclopentyl-2-naphthalen-1-ylacetamide]"
5,< 0.05 µM,"COc1ccc(-c2nc(-c3ccncc3)nn2CCN(C(=O)Cc2cccc3ccccc23)C2CCCC2)cc1Cl [Entry 10, N-(2-{5-[3-chloro-4-(methyloxy)phenyl]-3-pyridin-4-yl-1H-1,2,4-triazol-1-yl}ethyl)-N-cyclopentyl-2-naphthalen-1-ylacetamide]"
6,≥ 10 µM,"COc1ccc(-c2nc(-c3cccnc3)nn2CCN(C(=O)Cc2cccc3ccccc23)C2CCCC2)cc1Cl [Entry 13, N-(2-{5-[3-chloro-4-(methyloxy)phenyl]-3-pyridin-3-yl-1H-1,2,4-triazol-1-yl}ethyl)-N-cyclopentyl-2-naphthalen-1-ylacetamide]"
7,≥ 10 µM,"CCOC(=O)Cn1nc(-c2ccncc2)nc1-c1ccc([N+](=O)[O-])cc1 [Entry 14, ethyl [5-(4-nitrophenyl)-3-pyridin-4-yl-1H-1,2,4-triazol-1-yl]acetate]"
8,≥ 10 µM,"CCOC(=O)Cn1nc(-c2ccncc2)nc1-c1cc(Cl)cc(Cl)c1 [Entry 15, ethyl [5-(3,5-dichlorophenyl)-3-pyridin-4-yl-1H-1,2,4-triazol-1-yl]acetate]"
9,< 0.05 µM,"O=C(Cc1cccc2ccccc12)N(CCn1nc(-c2ccncc2)nc1-c1ccco1)C1CCCC1 [Entry 17, N-cyclopentyl-N-[2-(5-furan-2-yl-3-pyridin-4-yl-1H-1,2,4-triazol-1-yl)ethyl]-2-naphthalen-1-ylacetamide]"
10,0.05 to 1 µM,"O=C(Cc1cccc2ccccc12)N(CCn1nc(-c2cccs2)nc1-c1ccncc1)C1CCCC1 [Entry 19, N-cyclopentyl-2-naphthalen-1-yl-N-{2-[5-pyridin-4-yl-3-(2-thienyl)-1H-1,2,4-triazol-1-yl]ethyl}acetamide]"
11,1 to 10 µM,"COc1ccc(-c2nc(-c3ccncc3)nn2CCN(C(=O)c2cccc3ccccc23)C2CCCC2)cc1Cl [Entry 20, N-(2-{5-[3-chloro-4-(methyloxy)phenyl]-3-pyridin-4-yl-1H-1,2,4-triazol-1-yl}ethyl)-N-cyclopentylnaphthalene-1-carboxamide]"
12,< 0.05 µM,"COc1cccc(-c2nc(-c3ccncc3)nn2CCN(C(=O)Cc2cccc3ccccc23)C2CCCC2)c1 [Entry 22, N-cyclopentyl-N-(2-{5-[3-(methyloxy)phenyl]-3-pyridin-4-yl-1H-1,2,4-triazol-1-yl}ethyl)-2-naphthalen-1-ylacetamide]"
13,≥ 10 µM,"COc1ccc(-c2nc(-c3ccncc3)n(CCCCN(C(=O)Cc3cccc4ccccc34)C3CCCC3)n2)cc1Cl [Entry 25, N-(4-{3-[3-chloro-4-(methyloxy)phenyl]-5-pyridin-4-yl-1H-1,2,4-triazol-1-yl}butyl)-N-cyclopentyl-2-naphthalen-1-ylacetamide]"
14,≥ 10 µM,"COc1ccc(-c2nc(-c3ccncc3)nn2CCN(C(=O)c2ccccc2)C2CCCC2)cc1Cl [Entry 26, N-(2-{5-[3-chloro-4-(methyloxy)phenyl]-3-pyridin-4-yl-1H-1,2,4-triazol-1-yl}ethyl)-N-cyclopentylbenzamide]"
15,≥ 10 µM,"COc1ccc(-c2nc(-c3ccncc3)nn2CCN(C(=O)c2ccnc3ccccc23)C2CCCC2)cc1Cl [Entry 28, N-(2-{5-[3-chloro-4-(methyloxy)phenyl]-3-pyridin-4-yl-1H-1,2,4-triazol-1-yl}ethyl)-N-cyclopentylquinoline-4-carboxamide]"
